pIC50: −log10 of the molar value.
Tests used:
[1] = system: micturition reflex, anesthetized female Sprague Dawley rats; test: Distension-induced rhythmic contraction (DIRC) model; assay type: in vivo, rat; parameters: key: A = Produced a significant increase in contraction interval relative to pre-drug interval; conditions: contraction interval, i.v. or i.p.
Protocol: The effects of compounds on the micturition reflex were assessed in the “distension-induced rhythmic contraction” (DIRC), as described in previous publications (e.g. Maggi et al, 1987; Morikawa et al, 1992), and Continuous Slow Transvesicular Infusion (CSTI) models in rats.
Female Sprague Dawley rats weighing approximately 300 g were anesthetized with subcutaneous urethane (1.2 g/kg). The trachea was cannulated with PE240 tubing to provide a clear airway throughout the experiment. A midline abdominal incision was made and the left and right ureters were isolated. The ureters were ligated distally (to prevent escape of fluids from the bladder) and cannulated proximally with PE10 tubing. The incision was closed using 4-0 silk sutures, leaving the PE10 lines routed to the exterior for the elimination of urine. The bladder was canulated via the transurethral route using PE50 tubing inserted 2.5 cm beyond the urethral opening. This cannula was secured to the tail using tape and connected to a pressure transducer. To prevent leakage from the bladder, the cannula was tied tightly to the exterior urethral opening using 4-0 silk.
To initiate the micturition reflex, the bladder was first emptied by applying pressure to the lower abdomen, and then filled with normal saline in […] (maximum 2 ml) until spontaneous bladder contractions occurred (typically 20-40 mmHg at a rate of one contraction every 2 to 3 minutes. Once a regular rhythm was established, vehicle (saline) or Test Compounds were administered i.v. or i.p. to explore their effects on bladder activity. The 5-HT1A antagonist WAY-100635 was given as a positive control. Data were expressed as contraction interval (in seconds) before drug application (basal), or after the application of vehicle or test article.

[2] = system: micturition reflex, conscious male Sprague Dawley rats; test: Continuous Slow Transvesicular Infusion (CSTI) rat model; assay type: in vivo; parameters: key to Effect of MCH1 antagonist in the CSTI model: B = Produced an increase in bladder capacity in rats relative to baseline capacity
[3] = target: T1, human MCH1 receptor (Homo sapiens, UniProt Q99705); test: Saturation and competition binding of [3H]Compound 10, membranes of Cos-7 cells transfected with MCH1; parameters: expressed in transfected cells; host or cells: COS-7; conditions: 0.4 nM [3H]Compound 10; read-out: IC50, displacement of specific [3H]Compound 10 binding
T1 sequence (Q99705 whole entry): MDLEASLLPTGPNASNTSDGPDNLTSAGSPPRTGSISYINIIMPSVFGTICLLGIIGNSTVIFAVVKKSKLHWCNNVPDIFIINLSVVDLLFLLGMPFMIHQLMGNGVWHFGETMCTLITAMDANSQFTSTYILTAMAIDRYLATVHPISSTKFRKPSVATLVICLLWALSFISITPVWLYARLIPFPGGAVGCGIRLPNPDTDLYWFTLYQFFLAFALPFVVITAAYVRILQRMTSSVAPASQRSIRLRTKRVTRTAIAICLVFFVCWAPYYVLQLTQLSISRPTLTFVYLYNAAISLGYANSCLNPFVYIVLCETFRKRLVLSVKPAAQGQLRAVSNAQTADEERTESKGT
Protocol: Saturation equilibrium binding of [3H]Compound 10 to the human MCH1 receptor. Membrane preparations from Cos-7 cells transfected with MCH1 were incubated with varying concentrations of [3H]Compound 10 (SA: 56 Ci/mmol) at room temperature for 90 min, in a volume of 0.250 ml. The reaction was terminated by filtration in GF/C filters, and the radioactivity determined by scintillation counting. Non-specific binding was defined as the amount of radioactivity retained in the filter after incubating the reaction mixture in the presence of unlabeled Compound 10 ([…]).
Competition binding of [3H]Compound 10 to the human MCH1 receptor. […] The reaction was terminated by filtration in GF/C filters and the radioactivity bound to the membrane was determined by scintillation counting.
[3H]Compound 10 was tested for its ability to bind to membrane preparations of cells expressing the human MCH1 receptor.

[4] = target: T1, human MCH1 receptor; assay type: cell-based; parameters: expressed in transfected cells; host or cells: COS-7; conditions: linear regression, r^2=0.94
Protocol: Guidelines for cell preparation and assay of the second messenger inositol phosphate (IP) are described below for a typical protocol involving transiently transfected Cos-7 cells; For a 96 well microplate format assay, cells are plated at 70,000 cells per well and allowed to incubate for 24 hours after the transfection procedure. The cells are then labeled with 0.5 μCi [^3H]myo-inositol per micro-well over night at 37° C., 5% CO2. Immediately before the assay, the medium is removed and replaced with 90 μl PBS containing 10 mM LiCl. The plates are then incubated for 15 minutes at 37° C., […]. Following the incubation, the transfectants are challenged with agonist (10 μl/well; 10× concentration) for 30 minutes at 37° C., 5% CO2. The challenge is terminated and the cells lysed by the addition of 100 μl cold 5% v/v trichloroacetic acid (TCA), followed by an incubation at 4° C. for greater than 30 minutes. Total IPs are isolated from the lysate by ion exchange chromatography. Briefly, the lysed contents of the wells are transferred to a Multiscreen HV filter plate (Millipore) containing 100 μl Dowex AG1-X8 suspension (50% v/v, water:resin) (200-400 mesh, formate form). The filter plates are placed on a vacuum manifold to wash and elute the resin bed. Each well is first washed 2 times with 200 μl 5 mM myoinositol. Total [^3H]IPs are eluted with 75 μl of 1.2 M ammonium formate/0.1 M formic acid into Wallac 96-well plates. 200 μl of SuperMix scintillation cocktail is added to each well, mixed well, allowed to equilibrate and counted on a Micro Beta Trilux scintillation counter. (Note: The assay may be scaled to a 24 well format by simple adjustment of reagent volumes and employing individual chromatographic columns.)
The expression vector (pEXJ) containing the MCH1 cDNA was transfected by electroporation into Cos-7 cells in combination with an expression vector (pEXJ) containing the Gα16 subunit.

For `COCC1=C(C(=O)OC)[C@H](c2ccc(F)c(F)c2)N(C(=O)NCCCN2CCC(c3cccc(NC(C)=O)c3)CC2)C(=O)N1` [Example 10, (+)-1,2,3,6-TETRAHYDRO-1-{N-[4-(3,-ACETAMIDO)-PHENYLPIPERIDIN-1-YL]PROPYL}CARBOXAMIDO-4-METHOXYMETHYL-6-(3,4-DIFLUORO-PHENYL)-2-OXOPYRIMIDINE-5-CARBOXYLIC ACID METHYL ESTER], which “Effect of MCH1 antagonist in the DIRC model” value [1] is on record?
Its value is “A”.

What about the “bladder capacity (% basal)” value ([2]; 0.03 mg/kg, p.o., n=6 each, p<0.05) of the same compound?
The value was “Significantly different from corresponding vehicle control”.

What about the “Effect of MCH1 antagonist in the CSTI model” value ([2]; bladder capacity, intragastric) of the same compound?
The value was “B”.

What about the pIC50 [3] of the same compound?
Its pIC50 is 9.48.

And the “slope of the Schild plot” value [4]?
Its value is 0.97±0.2.
